Laboratory results published in US9693556B2, “Herbicidal pyridazinone derivatives” (SYNGENTA LIMITED, priority 2011, dated 2017).

Tests used:
Assay type in all cases: in vivo
[1] = test system: Alopecurus myosuroides (ALOMY); assay: Pre-emergence herbicidal glasshouse test on Alopecurus myosuroides; settings: pre-emergence; 1000 g/h; evaluated after 13 days
Method in brief: (§1)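 Steps: sow seeds in standard soil; cultivate 1 d (pre-) or 8 d (post-emergence) at 24/16 °C, 14 h light, 65% humidity; spray 1000 g/h in acetone/water plus Tween 20; grow on, watering twice daily; score percentage damage after 13 d.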

Setaria faberi (SETFA) [2] = assay: Pre-emergence herbicidal glasshouse test on Setaria faberi; settings: pre-emergence; 1000 g/h; evaluated after 13 days
Method in brief: as §1

[3] = test system: Echinochloa crus-galli (ECHCG); assay: Pre-emergence herbicidal glasshouse test on Echinochloa crus-galli; settings: pre-emergence; 1000 g/h; evaluated after 13 days
Method in brief: as §1

Solanum nigrum (SOLNI) [4] = assay: Pre-emergence herbicidal glasshouse test on Solanum nigrum; settings: pre-emergence; 1000 g/h; evaluated after 13 days
Method in brief: as §1

[5] = test system: Amaranthus retoflexus (AMARE); assay: Pre-emergence herbicidal glasshouse test on Amaranthus retoflexus; settings: pre-emergence; 1000 g/h; evaluated after 13 days
Method in brief: as §1

[6] = test system: Ipomoea hederacea (IPOHE); assay: Pre-emergence herbicidal glasshouse test on Ipomoea hederacea; settings: pre-emergence; 1000 g/h; evaluated after 13 days
Method in brief: as §1

[7] = test system: Alopecurus myosuroides (ALOMY); assay: Post-emergence herbicidal glasshouse test on Alopecurus myosuroides; settings: post-emergence; 1000 g/h; evaluated after 13 days
Method in brief: as §1

Setaria faberi (SETFA) [8] = assay: Post-emergence herbicidal glasshouse test on Setaria faberi; settings: post-emergence; 1000 g/h; evaluated after 13 days
Method in brief: as §1

[9] = test system: Echinochloa crus-galli (ECHCG); assay: Post-emergence herbicidal glasshouse test on Echinochloa crus-galli; settings: post-emergence; 1000 g/h; evaluated after 13 days
Method in brief: as §1

Solanum nigrum (SOLNI) [10] = assay: Post-emergence herbicidal glasshouse test on Solanum nigrum; settings: post-emergence; 1000 g/h; evaluated after 13 days
Method in brief: as §1

[11] = test system: Amaranthus retoflexus (AMARE); assay: Post-emergence herbicidal glasshouse test on Amaranthus retoflexus; settings: post-emergence; 1000 g/h; evaluated after 13 days
Method in brief: as §1

[12] = test system: Ipomoea hederacea (IPOHE); assay: Post-emergence herbicidal glasshouse test on Ipomoea hederacea; settings: post-emergence; 1000 g/h; evaluated after 13 days
Method in brief: as §1

SMILES	PRE Application ALOMY herbicidal damage (five point scale) [1]	PRE Application SETFA herbicidal damage (five point scale) (Setaria faberi (SETFA) [2])	PRE Application ECHCG herbicidal damage (five point scale) [3]	PRE Application SOLNI herbicidal damage (five point scale) (Solanum nigrum (SOLNI) [4])	PRE Application AMARE herbicidal damage (five point scale) [5]	PRE Application IPOHE herbicidal damage (five point scale) [6]	POST Application ALOMY herbicidal damage (five point scale) [7]	POST Application SETFA herbicidal damage (five point scale) (Setaria faberi (SETFA) [8])	POST Application ECHCG herbicidal damage (five point scale) [9]	POST Application SOLNI herbicidal damage (five point scale) (Solanum nigrum (SOLNI) [10])	POST Application AMARE herbicidal damage (five point scale) [11]	POST Application IPOHE herbicidal damage (five point scale) [12]
Cn1ncc(-c2ccc(C(F)(F)F)cc2S(C)(=O)=O)c(OC(=O)c2ccccc2)c1=O [Compound 3.002]	5 (5=80-100% damage)	5 (5=80-100% damage)	5 (5=80-100% damage)	5 (5=80-100% damage)	5 (5=80-100% damage)	5 (5=80-100% damage)	5 (5=80-100% damage)	5 (5=80-100% damage)	5 (5=80-100% damage)	5 (5=80-100% damage)	5 (5=80-100% damage)	5 (5=80-100% damage)
Cn1ncc(-c2ccc(SCc3ccccc3)cc2S(C)(=O)=O)c(O)c1=O [Compound 2.035]	3 (3=40-59% damage)	2 (2=20-39% damage)	3 (3=40-59% damage)	5 (5=80-100% damage)	5 (5=80-100% damage)	3 (3=40-59% damage)	4 (4=60-79% damage)	5 (5=80-100% damage)	5 (5=80-100% damage)	5 (5=80-100% damage)	5 (5=80-100% damage)	5 (5=80-100% damage)
CC(C)n1ncc(-c2ccc(C(F)(F)F)cc2S(C)(=O)=O)c(O)c1=O [Compound 1.013]	5 (5=80-100% damage)	5 (5=80-100% damage)	5 (5=80-100% damage)	5 (5=80-100% damage)	5 (5=80-100% damage)	4 (4=60-79% damage)	5 (5=80-100% damage)	5 (5=80-100% damage)	5 (5=80-100% damage)	5 (5=80-100% damage)	5 (5=80-100% damage)	5 (5=80-100% damage)
COCCn1cccc(-c2cnn(C)c(=O)c2O)c1=O [Compound 9.009]	1 (1=0-19% damage)	1 (1=0-19% damage)	1 (1=0-19% damage)	1 (1=0-19% damage)	1 (1=0-19% damage)	1 (1=0-19% damage)	2 (2=20-39% damage)	3 (3=40-59% damage)	3 (3=40-59% damage)	5 (5=80-100% damage)	4 (4=60-79% damage)	3 (3=40-59% damage)
Cn1ncc(-c2ccc(Cl)cc2Cl)c(O)c1=O [Compound 1.077]	1 (1=0-19% damage)	1 (1=0-19% damage)	1 (1=0-19% damage)	3 (3=40-59% damage)	3 (3=40-59% damage)	1 (1=0-19% damage)	1 (1=0-19% damage)	1 (1=0-19% damage)	1 (1=0-19% damage)	2 (2=20-39% damage)	4 (4=60-79% damage)	2 (2=20-39% damage)
